The source made the active and inactive calls.
Assays:
[1] = molecular target: T1, Short transient receptor potential channel 4 (Mus musculus, UniProt Q9QUQ5); experiment: mouse TRPC4 channel activators, dose response, cell-based, HEK293 TRPC4/mu-opioid, Fluo-4 calcium (AID 434937); assay type: functional
T1 sequence (Q9QUQ5 whole entry): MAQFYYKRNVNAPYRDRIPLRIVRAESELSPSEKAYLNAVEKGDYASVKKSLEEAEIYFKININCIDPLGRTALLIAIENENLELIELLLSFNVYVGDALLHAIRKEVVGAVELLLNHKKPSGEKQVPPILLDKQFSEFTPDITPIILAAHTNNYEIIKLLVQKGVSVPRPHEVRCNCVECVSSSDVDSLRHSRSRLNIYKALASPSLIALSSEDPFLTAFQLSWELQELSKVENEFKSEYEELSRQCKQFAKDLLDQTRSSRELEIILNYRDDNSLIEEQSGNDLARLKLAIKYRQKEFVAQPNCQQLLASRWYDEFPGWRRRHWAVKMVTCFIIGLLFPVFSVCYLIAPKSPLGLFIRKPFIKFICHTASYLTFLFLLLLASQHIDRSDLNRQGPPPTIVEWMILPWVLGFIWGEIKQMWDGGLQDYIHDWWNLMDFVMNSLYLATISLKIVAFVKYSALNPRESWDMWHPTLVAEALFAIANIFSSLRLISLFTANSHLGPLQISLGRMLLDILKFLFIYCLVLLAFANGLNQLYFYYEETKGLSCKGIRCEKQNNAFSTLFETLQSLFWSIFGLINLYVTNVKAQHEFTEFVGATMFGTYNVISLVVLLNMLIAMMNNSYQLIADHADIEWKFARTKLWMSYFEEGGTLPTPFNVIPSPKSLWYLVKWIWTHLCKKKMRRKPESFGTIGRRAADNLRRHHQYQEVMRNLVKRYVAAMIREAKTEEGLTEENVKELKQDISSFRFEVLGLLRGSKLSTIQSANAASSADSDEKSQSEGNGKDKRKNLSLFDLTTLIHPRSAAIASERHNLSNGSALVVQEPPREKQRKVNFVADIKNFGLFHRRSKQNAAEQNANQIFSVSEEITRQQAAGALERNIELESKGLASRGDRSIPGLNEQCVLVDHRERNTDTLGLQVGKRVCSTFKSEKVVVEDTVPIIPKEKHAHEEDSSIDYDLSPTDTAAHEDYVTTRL

[2] = molecular target: T1, Short transient receptor potential channel 4; experiment: mouse TRPC4 channel inhibitors, dose response, cell-based, HEK293 TRPC4/mu-opioid, Fluo-4 calcium (AID 434942); assay type: functional;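 further: potency of inhibitors blocking the TRPC4 calcium response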
[3] = HEp-2 cell cytotoxicity, dose response, cytotoxicity control for RSV inhibitor project, HTS (AID 2410); assay type: functional; conditions: human respiratory syncytial virus
[4] = molecular target: T2, Polyadenylate-binding protein 1 (Homo sapiens, UniProt P11940); experiment: PABP1 MLLE–PAM2 binding inhibitor potency, dose response, biochemical, fluorescence polarization, FITC-PAM2 peptide (AID 602259); assay type: functional; conditions: read-out: IC50_Mean
[5] = molecular target: T2, Polyadenylate-binding protein 1; experiment: PABP1 MLLE–PAM2 interaction inhibitors, dose response, miRNA deadenylation inhibitor project, biochemical, fluorescence polarization, Cy5-PAM2 peptide, secondary (AID 602260); assay type: functional; conditions: read-out: IC50_Mean
Leucine aminopeptidase = molecular target: T3, Leucine aminopeptidase (Plasmodium falciparum 3D7, UniProt Q8IL11); experiment: P. falciparum M17LAP inhibitors, primary screen, biochemical, fluorogenic H-Leu-NHMec substrate, 1536-well (AID 1619); assay type: functional
T3 sequence (Q8IL11 whole entry): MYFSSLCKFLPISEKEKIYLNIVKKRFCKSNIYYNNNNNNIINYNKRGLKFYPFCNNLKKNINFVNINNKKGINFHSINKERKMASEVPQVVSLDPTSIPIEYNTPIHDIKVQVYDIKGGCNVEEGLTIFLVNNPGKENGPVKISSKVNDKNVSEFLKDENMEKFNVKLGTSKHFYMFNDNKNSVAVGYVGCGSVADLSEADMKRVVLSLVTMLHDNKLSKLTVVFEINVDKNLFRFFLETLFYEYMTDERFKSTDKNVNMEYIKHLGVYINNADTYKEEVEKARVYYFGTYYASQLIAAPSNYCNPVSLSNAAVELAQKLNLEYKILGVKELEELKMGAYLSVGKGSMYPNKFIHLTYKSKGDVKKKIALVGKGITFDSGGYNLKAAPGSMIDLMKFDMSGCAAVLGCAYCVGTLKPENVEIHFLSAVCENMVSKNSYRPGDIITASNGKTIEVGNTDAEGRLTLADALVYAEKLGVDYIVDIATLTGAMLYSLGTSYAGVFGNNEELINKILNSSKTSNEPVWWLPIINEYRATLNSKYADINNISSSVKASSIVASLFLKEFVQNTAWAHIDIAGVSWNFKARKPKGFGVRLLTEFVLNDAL

[6] = molecular target: T4, Zinc finger protein mex-5 (Caenorhabditis elegans, UniProt Q9XUB2); experiment: MEX-5/TCR-2 RNA interaction inhibitors, dose response, biochemical, C. elegans, fluorescence polarization (AID 1960)
T4 sequence (Q9XUB2 whole entry): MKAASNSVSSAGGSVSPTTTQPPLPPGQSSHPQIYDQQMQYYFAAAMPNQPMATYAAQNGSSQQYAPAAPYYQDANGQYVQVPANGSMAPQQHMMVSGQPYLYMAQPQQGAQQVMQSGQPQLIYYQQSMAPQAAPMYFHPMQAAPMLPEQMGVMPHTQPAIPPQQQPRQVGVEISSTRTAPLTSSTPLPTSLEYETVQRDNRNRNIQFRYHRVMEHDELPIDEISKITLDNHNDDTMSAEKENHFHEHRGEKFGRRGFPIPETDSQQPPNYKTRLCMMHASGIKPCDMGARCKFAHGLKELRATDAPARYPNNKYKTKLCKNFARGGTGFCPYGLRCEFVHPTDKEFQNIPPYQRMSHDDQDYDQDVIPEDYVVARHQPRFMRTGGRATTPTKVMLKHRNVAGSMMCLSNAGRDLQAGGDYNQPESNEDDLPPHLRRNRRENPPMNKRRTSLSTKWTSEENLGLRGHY

[7] = molecular target: T5, RNA-binding protein pos-1 (Caenorhabditis elegans, UniProt G5EF15); experiment: inhibitors of POS-1/mex-3 RNA binding, dose response, biochemical, fluorescence polarization (AID 1964);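 further: purified POS-1 fused to maltose binding protein made in E. coli; potency of compounds blocking POS-1 binding to fluorescent RNA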
T5 sequence (G5EF15 whole entry): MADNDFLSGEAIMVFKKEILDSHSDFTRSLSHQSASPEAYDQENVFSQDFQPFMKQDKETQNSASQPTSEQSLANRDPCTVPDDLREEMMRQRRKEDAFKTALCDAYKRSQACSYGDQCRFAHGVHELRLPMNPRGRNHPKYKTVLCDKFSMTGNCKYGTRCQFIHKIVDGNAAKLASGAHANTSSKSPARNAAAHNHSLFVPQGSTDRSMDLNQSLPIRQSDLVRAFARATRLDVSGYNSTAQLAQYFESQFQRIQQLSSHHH

[8] = system: Streptococcus sp. 'group A'; experiment: growth inhibition of control SK(-) GAS strain, dose response, counter-screen for streptokinase expression inhibitor project, luminescence, kanamycin, BacTiterGlo, confirmation (AID 1900); assay type: functional, organism-based
Streptokinase A = molecular target: T6, Streptokinase A (Streptococcus pyogenes serotype M1, UniProt P10520); experiment: S. pyogenes streptokinase expression inhibitors, potency, dose response, plasminogen activation absorbance, OD405 (AID 1914); assay type: functional, Streptococcus pyogenes M1 GAS;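 further: secreted streptokinase activity via plasminogen activation per viability signal from cell pellet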
T6 sequence (P10520 whole entry): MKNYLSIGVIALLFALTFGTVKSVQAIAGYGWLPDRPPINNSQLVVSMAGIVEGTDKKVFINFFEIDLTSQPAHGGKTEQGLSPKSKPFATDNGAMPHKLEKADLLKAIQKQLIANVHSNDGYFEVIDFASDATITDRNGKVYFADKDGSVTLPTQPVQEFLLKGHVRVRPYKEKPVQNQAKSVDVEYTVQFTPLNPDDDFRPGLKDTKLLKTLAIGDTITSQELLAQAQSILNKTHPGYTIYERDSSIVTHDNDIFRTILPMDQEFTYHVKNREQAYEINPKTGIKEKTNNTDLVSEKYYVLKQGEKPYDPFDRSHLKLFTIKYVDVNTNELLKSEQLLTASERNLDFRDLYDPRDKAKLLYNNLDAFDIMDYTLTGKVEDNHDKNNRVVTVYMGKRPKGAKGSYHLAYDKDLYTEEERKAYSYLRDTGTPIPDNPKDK

Streptococcus = experiment: Group A Streptococcus viability loss, dose response, counter-screen for streptokinase expression inhibitor project, luminescence, BacTiterGlo (AID 1915); assay type: functional, organism-based;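 further: potency for reduction of bacterial viability or growth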

T2 sequence (P11940 whole entry): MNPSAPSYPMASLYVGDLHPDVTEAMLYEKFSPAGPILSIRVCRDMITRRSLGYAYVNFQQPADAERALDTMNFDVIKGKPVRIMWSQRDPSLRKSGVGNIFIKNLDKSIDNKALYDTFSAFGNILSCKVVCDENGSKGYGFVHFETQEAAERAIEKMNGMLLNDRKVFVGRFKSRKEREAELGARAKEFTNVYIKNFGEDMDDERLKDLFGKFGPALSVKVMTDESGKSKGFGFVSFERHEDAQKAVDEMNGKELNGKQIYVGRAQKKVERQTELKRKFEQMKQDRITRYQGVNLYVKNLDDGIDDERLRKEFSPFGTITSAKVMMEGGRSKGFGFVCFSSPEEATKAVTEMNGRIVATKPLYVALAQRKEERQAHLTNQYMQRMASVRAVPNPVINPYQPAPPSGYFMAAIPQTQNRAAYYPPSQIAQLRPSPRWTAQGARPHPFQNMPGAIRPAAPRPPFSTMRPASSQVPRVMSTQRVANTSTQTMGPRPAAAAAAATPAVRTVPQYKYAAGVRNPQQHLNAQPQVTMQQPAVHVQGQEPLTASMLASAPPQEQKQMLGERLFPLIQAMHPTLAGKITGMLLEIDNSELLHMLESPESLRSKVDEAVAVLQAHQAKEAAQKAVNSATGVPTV

SMILES	IC50 [4]	IC50 [5]	other results
CN(C)/C=C1\C(=O)N(c2ccc([N+](=O)[O-])cc2)N=C1c1ccccc1	–	–	EC50 [1]: 10.6 µM (active); EC50 [2]: 15 µM (active); CC50 [3]: 31.8 µM (active)
Cc1cc(C)c2c(=O)c(C#N)coc2c1	> 66 µM (inactive)	> 66 µM (inactive)	–
Oc1cccc(C(=S)N2CCCCC2)c1	> 66 µM (inactive)	> 66 µM (inactive)	–
CC(C)(C)C1CCc2c(C(=O)NNC(=O)CCCC(=O)O)csc2C1 (centres undefined)	–	–	IC50 (Leucine aminopeptidase): 11.6 µM (active)
Nc1cccc2c1C(=O)N(Cc1nnc(-c3ccccc3Br)o1)C2=O	48.1 µM (inactive)	> 66 µM (inactive)	EC50 [6]: 29.4 µM (active); EC50 [7]: 40 µM (active)
CCOC(=O)C1(CCc2ccccc2)CCN(Cc2ccc(O)cc2)CC1	–	–	EC50 [1]: 5.31 µM (active); EC50 [2]: 2.99 µM (active)
CC(C)C1OC2c3cccc4cccc(c34)C2N1c1ccccc1 (centres undefined)	> 66 µM (inactive)	> 66 µM (inactive)	EC50 [8]: 3.22 µM (active); EC50 (Streptokinase A): 2.61 µM (active); EC50 (Streptococcus): > 150 µM (not active)
Cc1ccc(Sc2cc(C(=O)NCCN(C)C)c3ccccc3n2)cc1	–	–	EC50 [1]: 2.66 µM (active)
O=C1NN(CCO)C(=S)Nc2ccccc21	> 66 µM (inactive)	> 66 µM (inactive)	–
NC(=O)c1cccc2c1-c1ccccc1/C2=N/NC(N)=S	> 66 µM (inactive)	> 66 µM (inactive)	–
COc1ccccc1N1CCN(/N=C/c2c(C)nn(-c3ccccc3)c2C)CC1	> 66 µM (inactive)	> 66 µM (inactive)	–
COC1=CC(=NCl)C=CC1=NCl	49.9 µM (inactive)	> 66 µM (inactive)	–
O/N=C/c1c[nH]c2ccccc12	–	–	IC50 (Leucine aminopeptidase): 13.2 µM (active)
